From US20220402982A1, “POLYPEPTIDE FRAGMENT D (MP-D) AND USE THEREOF” (SHANGHAI LONGXIN BIOMEDICAL TECHNOLOGY CO., LTD., priority 2021, published 2022)

Tests used:
DSS-induced IBD in mice [1] = test: Colon length in DSS-induced acute IBD mouse model; assay type: in vivo, male C57BL6 mice; conditions: 50 μg/kg intragastrically, 7 days pre-administration, then daily together with 2.5 wt % DSS; x±SD; model group 5.3±0.6, blank control 9.4±0.6; in cm (unit assumed)
Protocol: (§1) The administration of a DSS solution with a specified concentration to mice can induce an acute IBD model characterized by diarrhea, hematochezia, ulcer, and granulocyte infiltration. Mice were randomly grouped according to body weights of the mice. 40 healthy male C57BL6 mice were divided into four groups each with 10 mice:
(§2) blank control group: the mice were each intragastrically administered with water every day at a volume of 0.4 mL/20 g;
(§3) model group: the mice were each intragastrically administered with a DSS aqueous solution of a mass fraction of 2.5 wt % consecutively for 7 days, where the DSS aqueous solution was freshly prepared and changed every day; […]
The body weight changes of mice in each group were recorded every day to determine whether the acute IBD mouse model was successfully established.
(§4) A mouse colon between an anus end to an ileocecal end was integrally collected, and a length of the colon was measured; and the colon was dissected along a longitudinal axis, feces therein was rinsed off, and then the colon was stored in 4% […] or frozen at −80° C. […]

DSS-induced IBD in mice [2] = test: Colonic histopathological evaluation (HE staining, scoring) in DSS-induced acute IBD mouse model; assay type: in vivo, male C57BL6 mice; conditions: 50 μg/kg intragastrically, 7 days pre-administration, then daily together with 2.5 wt % DSS; x±SD; model group 7.4±0.6, blank control 0.0±0.0
Protocol: as §1, §2, §3, §4
Experimental data in the above experimental method were expressed as (x±SD), the GraphPad Prism (ver. 8.0, GraphPad Software Inc., San Diego, Calif., USA) was used to plot a chart, the SPSS Program (ver. 25.0, SPSS Inc., Chicago, Ill., USA) was used for statistical test, and one-way ANOVA or independent two-sample t-test were used for significance test when the normality and homogeneity of variances were met. […]

Molecule | colon length (DSS-induced IBD in mice [1]) | colonic histopathologic score (DSS-induced IBD in mice [2])
THTVGSYFQVQNGYVGAFSRALGNNEYAMNS (THTVGSYFXVQNGYVGAFSXALGNXEYAMNS; Sequence is synthesized; (9)..(9) Xaa can be Tyr, Val, Gly, Ser, Gln, or absent; (20)..(20) Xaa can be Ser, Gln, Glu, Tyr, Arg, or absent; (25)..(25) Xaa can be Asn, Thr, Ser, Pro, Leu, or absent) [MP-D] | 8.0±0.9 | 1.3±0.6
THTVGSYFSVQNGYVGAFSQALGNSEYAMNSPLGSLDGRTTMYNLLGVKYLFAREDQLKKQ (peptide, listed as Lactobacillus plantarum, positive control) THTVGSYFSVQNGYVGAFSQALGNSEYAMNSPLGSLDGRTTMYNLLGVKYLFAREDQLKKQ | 7.9±0.5 | 2.4±0.8
